Results from the supplement of paper PMC11061612.

Tests used:
Test in all cases: Bliss excess, mean over the matrix (fraction); higher = more synergy
5637 (Bladder Carcinoma) = system: 5637 (Bladder Carcinoma)
Outline: (§1)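 Cell lines in DMEM/F12 or RPMI with 10% FBS were plated in 1536-well plates, held 24 hours at 37°C, 5% CO2, then given two-drug dose matrices for 72 hours (DMSO typically 0.2%). Viability was read by CellTiter-Glo 2.0 luminescence and scaled as inhibition from 0 (vehicle wells) to 1 (blank wells). Combination Emax is the second-highest inhibition in the matrix; Bliss excess is observed combination effect minus expected EA + EB − EA·EB, EA and EB being single-agent effects.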

A101D (Melanoma) = system: A101D (Melanoma)
Outline: as §1

A204 (Rhabdomyosarcoma) = system: A204 (Rhabdomyosarcoma)
Outline: as §1

[1] = system: CESS (Acute Myeloid Leukemia)
Outline: as §1

COLO-792 (Melanoma) = system: COLO-792 (Melanoma)
Outline: as §1

[2] = system: DMS-53 (Small Cell Lung Carcinoma)
Outline: as §1

[3] = system: DU-4475 (Breast Carcinoma)
Outline: as §1

[4] = system: ESO26 (Esophageal Adenocarcinoma)
Outline: as §1

EW-16 (Ewing's Sarcoma) = system: EW-16 (Ewing's Sarcoma)
Outline: as §1

[5] = system: G-402 (Other Solid Carcinomas)
Outline: as §1

[6] = system: HCC1428 (Breast Carcinoma)
Outline: as §1

[7] = system: JIMT-1 (Breast Carcinoma)
Outline: as §1

KP-N-YN (Neuroblastoma) = system: KP-N-YN (Neuroblastoma)
Outline: as §1

[8] = system: LS-411N (Colorectal Carcinoma)
Outline: as §1

NB13 (Neuroblastoma) = system: NB13 (Neuroblastoma)
Outline: as §1

[9] = system: NCI-H2228 (Lung Adenocarcinoma)
Outline: as §1

[10] = system: NCI-H716 (Colorectal Carcinoma)
Outline: as §1

RH-41 (Rhabdomyosarcoma) = system: RH-41 (Rhabdomyosarcoma)
Outline: as §1

[11] = system: TE-10 (Esophageal Squamous Cell Carcinoma)
Outline: as §1

[12] = system: huH-1 (Hepatocellular Carcinoma)
Outline: as §1

Row | SMILES | Bliss excess (5637 (Bladder Carcinoma)) | Bliss excess (A101D (Melanoma)) | Bliss excess (A204 (Rhabdomyosarcoma)) | Bliss excess [1] | Bliss excess (COLO-792 (Melanoma)) | Bliss excess [2] | Bliss excess [3] | Bliss excess [4] | Bliss excess (EW-16 (Ewing's Sarcoma)) | Bliss excess [5] | Bliss excess [6] | Bliss excess [7] | Bliss excess (KP-N-YN (Neuroblastoma)) | Bliss excess [8] | Bliss excess (NB13 (Neuroblastoma)) | Bliss excess [9] | Bliss excess [10] | Bliss excess (RH-41 (Rhabdomyosarcoma)) | Bliss excess [11] | Bliss excess [12]
1 | COc1cc2c(cc1OCCCCCOc1cc3c(cc1OC)C(=O)N1C=C(C)C[C@H]1C=N3)N=C[C@@H]1CC(C)=CN1C2=O [SG3199] + O=C(c1cc(Cc2n[nH]c(=O)c3ccccc23)ccc1F)N1CCN(C(=O)C2CC2)CC1 [Olaparib] (first compound max 0.001 µM, 7x7, partner max 10 µM) | -0.0278 | -0.0365 | -0.0686 | -0.0156 | -0.0373 | -0.0259 | 0.0741 | 0.0119 | -0.0066 | -0.0289 | -0.0676 | -0.0188 | -0.0387 | -0.0255 | -0.0143 | -0.0607 | -0.0322 | 0.0396 | -0.0402 | -0.0278
2 | Cc1cc2ncnn2cc1Nc1ncc2c(n1)n(C1CCOCC1)c(=O)n2C [AZD7648] + C=CCn1c(=O)c2cnc(Nc3ccc(N4CCN(C)CC4)cc3)nc2n1-c1cccc(C(C)(C)O)n1 [AZD1775] (first compound max 10 µM, partner max 1 µM) | 0.0026 | 0.0275 | -0.0041 | 0.028 | 0.0087 | 0.0149 | -0.051 | -0.0641 | -0.0471 | 0.0111 | 0.0179 | 0.0463 | -0.0428 | -0.0318 | -0.0531 | 0.0384 | 0.0448 | 0.0157 | 0.0053 | 0.0313
3 | C[C@@H](c1ccc2nccn2c1)n1nnc2ncc(-c3cnn(C)c3)nc21 [Savolitinib] + CC1(C)CCC(CN2CCN(c3ccc(C(=O)NS(=O)(=O)c4ccc(NCC5CCOCC5)c([N+](=O)[O-])c4)c(Oc4cnc5[nH]ccc5c4)c3)CC2)=C(c2ccc(Cl)cc2)C1 [Venetoclax] (first compound max 1 µM, 7x7, partner max 1 µM) | -0.0523 | -0.0598 | -0.0629 | -0.0517 | -0.0601 | -0.0446 | -0.0533 | -0.0547 | -0.0873 | -0.067 | -0.0219 | -0.0354 | -0.0927 | -0.0349 | -0.073 | -0.0605 | -0.0423 | -0.0483 | – | -0.0804
4 | CC(=O)c1c(C)c2cnc(Nc3ccc(N4CCNCC4)cn3)nc2n(C2CCCC2)c1=O [Palbociclib] + CN(CC[C@H](CSC1=CC=CC=C1)NC2=C(C=C(C=C2)S(=O)(=O)NC(=O)C3=CC=C(C=C3)N4CCC(CC4)[C@H](C5=CC=CC=C5C6=CC=C(C=C6)Cl)O)S(=O)(=O)C(F)(F)F)CCO [AZD4320] (first compound max 10 µM, 7x7, partner max 1 µM) | -0.0373 | 0.0351 | -0.0397 | -0.0225 | -0.0863 | 0.038 | 0.0318 | -0.0562 | -0.127 | -0.0503 | -0.082 | -0.0507 | – | -0.0089 | – | -0.0627 | -0.0417 | 0.0142 | – | -0.0294
5 | CN(CCO)CC[C@H](CSc1ccccc1)Nc1ccc(S(=O)(=O)NC(=O)c2ccc(N3CCC([C@@H](O)c4ccccc4-c4ccc(Cl)cc4)CC3)cc2)cc1S(=O)(=O)C(F)(F)F [AZD4320] + CC(=O)O[C@H]1C(=O)[C@@]2(C)[C@H]([C@H](OC(=O)c3ccccc3)[C@]3(O)C[C@H](OC(=O)[C@H](O)[C@@H](NC(=O)c4ccccc4)c4ccccc4)C(C)=C1C3(C)C)[C@]1(OC(C)=O)CO[C@@H]1C[C@@H]2O [Paclitaxel] (first compound max 1 µM, 7x7, partner max 3 µM) | – | – | – | – | – | – | – | – | – | – | – | – | 0.0826 | – | – | – | – | – | – | –
6 | C[C@@H](c1ccc2nccn2c1)n1nnc2ncc(-c3cnn(C)c3)nc21 [Savolitinib] + CN(CC[C@H](CSC1=CC=CC=C1)NC2=C(C=C(C=C2)S(=O)(=O)NC(=O)C3=CC=C(C=C3)N4CCC(CC4)[C@H](C5=CC=CC=C5C6=CC=C(C=C6)Cl)O)S(=O)(=O)C(F)(F)F)CCO [AZD4320] (first compound max 1 µM, 7x7, partner max 1 µM) | -0.057 | -0.0202 | -0.0484 | -0.001 | 0.0139 | -0.036 | -0.0352 | -0.0467 | -0.0994 | -0.0639 | -0.0206 | -0.0427 | – | -0.0069 | – | -0.0527 | -0.0422 | -0.0093 | – | -0.0456
7 | Cc1nc(Nc2ncc(C(=O)Nc3c(C)cccc3Cl)s2)cc(N2CCN(CCO)CC2)n1 [Dasatinib] + CC(=O)Nc1cccc(-n2c(=O)n(C3CC3)c(=O)c3c(Nc4ccc(I)cc4F)n(C)c(=O)c(C)c32)c1 [Trametinib] (first compound max 2 µM, 7x7, partner max 1 µM) | 0.0923 | 0.0947 | -0.0955 | -0.0622 | -0.0726 | -0.0423 | 0.011 | -0.0892 | -0.0358 | -0.0618 | -0.0334 | 0.0276 | -0.0983 | 0.0509 | -0.0347 | -0.049 | -0.0355 | -0.0946 | – | -0.0076
8 | CN(CCO)CC[C@H](CSc1ccccc1)Nc1ccc(S(=O)(=O)NC(=O)c2ccc(N3CCC([C@@H](O)c4ccccc4-c4ccc(Cl)cc4)CC3)cc2)cc1S(=O)(=O)C(F)(F)F [AZD4320] + Nc1ccn([C@@H]2O[C@H](CO)[C@@H](O)C2(F)F)c(=O)n1 [Gemcitabine] (first compound max 1 µM, 7x7, partner max 0.3 µM) | – | – | – | – | – | – | – | – | – | – | – | – | – | – | 0.0074 | – | – | – | – | –
9 | C[C@@H](c1ccc2nccn2c1)n1nnc2ncc(-c3cnn(C)c3)nc21 [Savolitinib] + Cc1c2c(nn1C)CSCc1cc(n(C)n1)CSc1cc(c3ccccc3c1)OCCCc1c(C(=O)O)n(C)c3c-2c(Cl)ccc13 [AZD5991] (first compound max 1 µM, 7x7, partner max 1 µM) | -0.0456 | -0.0202 | -0.0502 | -0.048 | -0.0446 | -0.0359 | 0.007 | -0.0026 | -0.032 | -0.0611 | -0.0039 | -0.0551 | 0.0028 | -0.0232 | -0.0206 | -0.0577 | -0.0572 | 0.0471 | – | -0.0586
10 | N#Cc1cnc(Nc2cc(NC[C@H]3CNCCO3)c(C(F)(F)F)cn2)cn1 [SRA737] + CCc1c2c(nc3ccc(O)cc13)-c1cc3c(c(=O)n1C2)COC(=O)[C@]3(O)CC [SN-38] (first compound max 10 µM, 7x7, partner max 0.3 µM) | – | – | – | – | – | – | – | – | – | – | – | – | -0.0189 | – | 0.129 | – | – | – | – | –
11 | Cc1cc2ncnn2cc1Nc1ncc2c(n1)n(C1CCOCC1)c(=O)n2C [AZD7648] + COc1cc([C@@H]2c3cc4c(cc3[C@@H](O[C@@H]3O[C@@H]5CO[C@@H](C)O[C@H]5[C@H](O)[C@H]3O)[C@H]3COC(=O)[C@H]23)OCO4)cc(OC)c1O [Etoposide] (first compound max 10 µM, 7x7, partner max 10 µM) | – | – | – | – | – | – | – | – | – | – | – | – | 0.0446 | – | -0.0803 | – | – | – | – | –
12 | CN(CCO)CC[C@H](CSc1ccccc1)Nc1ccc(S(=O)(=O)NC(=O)c2ccc(N3CCC([C@@H](O)c4ccccc4-c4ccc(Cl)cc4)CC3)cc2)cc1S(=O)(=O)C(F)(F)F [AZD4320] + Cn1cnc2c(F)c(Nc3ccc(Br)cc3Cl)c(C(=O)NOCCO)cc21 [Selumetinib] (first compound max 1 µM, 7x7, partner max 3 µM) | -0.0332 | -0.0099 | -0.0054 | -0.0701 | 0.0279 | 0.0964 | 0.0444 | 0.0111 | 0.076 | 0.0153 | 0.0011 | 0.0367 | 0.0076 | 0.0165 | 0.0039 | 0.0075 | – | 0.0087 | -0.0187 | -0.0106
13 | N#Cc1cnc(Nc2cc(NC[C@H]3CNCCO3)c(C(F)(F)F)cn2)cn1 [SRA737] + C=CCn1c(=O)c2cnc(Nc3ccc(N4CCN(C)CC4)cc3)nc2n1-c1cccc(C(C)(C)O)n1 [AZD1775] (first compound max 10 µM, partner max 1 µM) | – | – | – | – | – | – | – | – | – | – | – | – | 0.0762 | – | 0.0322 | – | – | – | – | –
14 | N#Cc1cnc(Nc2cc(NC[C@H]3CNCCO3)c(C(F)(F)F)cn2)cn1 [SRA737] + O=c1[nH]cc(F)c(=O)[nH]1 [5-Fluorouracil] (first compound max 10 µM, 7x7, partner max 20 µM) | – | – | – | – | – | – | – | – | – | – | – | – | -0.0468 | – | -0.0699 | – | – | – | – | –
15 | COc1cc2ncnc(Nc3ccc(F)c(Cl)c3)c2cc1OCCCN1CCOCC1 [Gefitinib] + CC(C)n1c(=O)n(C)c2cnc3cc(F)c(-c4ccc(OCCCN5CCCCC5)nc4)cc3c21 [AZD1390] (first compound max 10 µM, 7x7, partner max 0.3 µM) | -0.0467 | -0.083 | -0.0563 | -0.0386 | -0.0612 | -0.0243 | -0.0427 | -0.0832 | -0.0566 | -0.0659 | -0.0393 | -0.0248 | -0.045 | -0.0463 | -0.0433 | -0.0704 | -0.0353 | -0.0378 | – | -0.0593
16 | COc1nnc2ccc(N3CCC(c4ccc(OCCN5CCN(C)C(=O)[C@H]5C)cc4)CC3)nn12 [AZD5153] + CN(CC[C@H](CSC1=CC=CC=C1)NC2=C(C=C(C=C2)S(=O)(=O)NC(=O)C3=CC=C(C=C3)N4CCC(CC4)[C@H](C5=CC=CC=C5C6=CC=C(C=C6)Cl)O)S(=O)(=O)C(F)(F)F)CCO [AZD4320] (first compound max 1 µM, 7x7, partner max 1 µM) | 0.122 | 0.0648 | 0.0084 | 0.0356 | 0.0427 | -0.0168 | 0.0779 | 0.0233 | 0.0851 | 0.0157 | 0.0114 | 0.0486 | – | 0.0969 | – | 0.0351 | -0.0394 | 0.0427 | – | -0.0206
